For 15 compounds, TGI and GI50 results are on record in PubChem BioAssay (NCI).

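Results reflect a 48-hour exposure of cells in 96-well plates to compound at five concentrations. GI50 = concentration required for 50% inhibition of growth. TGI marks complete inhibition of growth.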

What all share (experiment): NCI tumour cell line growth inhibition, 48 h
For assay [1], the system named is A498 renal.
Assay [2] relates to HT29 colon.
In assay [3] the test system is K-562 leukemia.
The test system of assay [4] is LXFL 529 NSCLC.
For assay [5], the system named is TK-10 renal.
Assay [6] deals with U251 CNS.
Assay [7] has as its system UACC-257 melanoma.
Assay [8] concerns XF 498 CNS.
The test system of assay [9] is KM20L2 colon.
Assay [10] has as its system T-47D breast.

Regarding `Oc1c2c(c(O)c3ccccc13)=N[C@@H](c1ccccc1)[C@H](c1ccccc1)N=2`, the TGI in assay [1], in assay [2], in assay [3], in assay [4], in assay [5] and in assay [6] was greater than 100 µM throughout. The TGI in assay [7] and in assay [8] was greater than 100 µM each time.
As for `NC1=NC(=O)C(CC(=O)Nc2ccc([N+](=O)[O-])cc2[N+](=O)[O-])S1` (centres undefined), the TGI in assay [2], in [9], in assay [4], in assay [5], in [6] and in assay [7] was greater than 100 µM in each case. The compound also came in with a TGI in [8] greater than 100 µM.
`Cc1ccc([N+](=O)[O-])c2c(NCCCN(C)C)ccnc12`: the TGI in assay [1] was greater than 100 µM; in assay [2], greater than 90.7 µM; in assay [3], greater than 100 µM; in [9], 75.2 µM; in [10], greater than 100 µM; in assay [5] it was greater than 100 µM. In addition, the figures for the TGI in assay [6] and in assay [7] were greater than 100 µM and greater than 91.1 µM, respectively.
Take `CN1CCN(C)C1c1cccc(C2N(C)CCN2C)c1`: the TGI in [1], in assay [2], in [3], in assay [9], in assay [4] and in assay [6] was greater than 100 µM throughout.
For `CC1=Nc2c(ccc3c2C(=O)c2ccccc2C3=O)NC(c2ccncc2)C1` (centres undefined), the TGI in assay [1], in [2], in assay [3], in assay [9], in [4] and in assay [5] was greater than 100 µM throughout. In addition, the TGI in [6], in assay [7] and in assay [8] was greater than 100 µM throughout. Further, the GI50 in assay [2], in assay [9], in [4], in [6] and in [7] was greater than 100 µM throughout.
For the compound `CC(=O)OCCOCBr`, the TGI in [1], in assay [2], in assay [3], in assay [9], in assay [4] and in [5] was greater than 100 µM throughout. The TGI in assay [6], in assay [7] and in assay [8] was greater than 100 µM each time.
On to `C=C(COC(C)=O)CC(/C=C(\C)CCC=C(C)C)OC(C)=O` (centres undefined), for which the TGI in [1], in assay [2], in assay [3], in assay [9], in [4] and in assay [5] was greater than 100 µM in each case. For the same compound, the TGI in assay [6] and in assay [8] was greater than 100 µM each time.
As to `O=C(Nc1ccc(S(=O)(=O)N[C@@H](C(=O)O)c2ccccc2)cc1)c1ccc(F)cc1`, the TGI in [1], in assay [2], in assay [3], in assay [9], in assay [4] and in assay [5] was greater than 100 µM in each case. For the same compound, the TGI in [6], in assay [7] and in [8] was greater than 100 µM each time.
For the compound `CC(O)CN1C(=O)NC(Cc2ccccc2)C1=O` (centres undefined), the TGI in assay [2], in [9], in assay [4], in assay [5], in assay [6] and in assay [7] was greater than 100 µM in each case. Further, in assay [8], the TGI was greater than 100 µM.
Consider `CC1CCCC(C(=O)/C(=C/c2cccc(Cl)c2)C(=O)C(=O)O)C1` (centres undefined), for which the TGI in assay [1] was greater than 100 µM; in assay [2], 38.1 µM; in assay [3] it was 47.4 µM; in [9], 90 µM; in assay [4] it was 43 µM; in [5], greater than 100 µM. For the same compound, the TGI is 32.5 µM in [6] and greater than 100 µM in [7].
As for `COc1ccc(/C=C/C(=O)c2sc(-n3nc(-c4ccccc4)cc3-c3ccccc3)nc2C)cc1OC`, the TGI in assay [2] is greater than 100 µM; in assay [3], 83.3 µM; in assay [9], 63.7 µM; in assay [4], greater than 100 µM; in [5], greater than 100 µM; in [6], greater than 100 µM. Besides, the TGI in assay [7] and in assay [8] was greater than 100 µM throughout.
Take `c1cc[c]([Sn]([S]c2cccc3cccnc23)([c]2ccccc2)[c]2ccccc2)cc1`: the GI50 was 0.152 µM in assay [1]; 0.0223 µM in assay [2]; 0.0338 µM in assay [9]; 0.0209 µM in assay [4]; 0.0446 µM in assay [5]; 0.0347 µM in assay [6]. Further, the GI50 in assay [8] is 0.0241 µM. The TGI in [1] came to 0.346 µM; in assay [2] it was 0.0908 µM; in [9], 0.109 µM; in assay [4], 0.0548 µM; in assay [5] it was 0.181 µM; in [6] it was 0.11 µM. The TGI in assay [8] amounted to 0.0524 µM.
For the compound `O=C1N[C@@H](O)[C@@H]2ON=C(c3ccccc3)[C@H]12`, the TGI in assay [1], in [2], in [3], in [9], in assay [4] and in assay [5] was greater than 100 µM throughout. Further, the TGI in assay [6], in [7] and in assay [8] was greater than 100 µM each time.
With `CN(C)C(=S)/N=c1\ss/c(=N\S(=O)(=O)c2ccccc2)n1-c1ccccc1`, the TGI in assay [1], in assay [2], in [3], in [5], in assay [6] and in assay [7] was greater than 100 µM in each case. In addition, in [8], the TGI stood at 79.4 µM.
Consider `CCOC(=O)Cc1nc(/C(C#N)=C/c2ccco2)[nH]c(=O)c1C#N`, for which the TGI in assay [2], in [3], in [9], in assay [4], in [5] and in [6] was greater than 100 µM each time. The compound also showed a TGI in [7] greater than 100 µM.
